Measured values as given in PMC5590075, “Synthesis, Antimicrobial, and Antioxidant Activities of Chalcogen-Containing Nitrone Derivatives from (R)-citronellal” (Medicines, 2017).
Converted amounts (≈) assume the structure as drawn.

Experiments:
[1] = parameters: method as in doi:10.1016/j.foodcont.2011.06.017; conditions: cited from earlier work
[2] = parameters: method as in doi:10.1016/j.foodcont.2011.06.017; conditions: cited from earlier work; remark: listed apart in the source
[3] = parameters: method as in doi:10.1016/j.foodcont.2011.06.017; conditions: cited from earlier work; remark: listed apart in the source
P. fluorescens = test system: P. fluorescens; parameters: method as in doi:10.1016/j.lwt.2014.05.036; conditions: cited from earlier work
L. monocytogenes = test system: L. monocytogenes; parameters: method as in doi:10.1016/j.lwt.2014.05.036; conditions: cited from earlier work
S. aureus = test system: S. aureus; parameters: method as in doi:10.1016/j.lwt.2014.05.036; conditions: cited from earlier work
E. coli = test system: E. coli; parameters: method as in doi:10.1016/j.lwt.2014.05.036; conditions: cited from earlier work
S. Typhimurium = test system: S. Typhimurium; parameters: method as in doi:10.1016/j.lwt.2014.05.036; conditions: cited from earlier work
S. dysenteriae = test system: S. dysenteriae; parameters: method as in doi:10.1016/j.lwt.2014.05.036; conditions: cited from earlier work
[4] = test system: Bacillus cereus ATCC 11778; assay: agar disk diffusion test; format: cell-based; conditions: Bacillus cereus, ATCC11778; B. cereus, 1.0 × 10^8 CFU.mL^−1; 20 μL compound diluted in DMSO (1:1) per 6 mm disc; streptomycin 10 µg; mean of two repetitions
Description: (§1) To evaluate the antimicrobial potential of the synthesized compounds, the following reference strains of bacteria, that are economically important in foods, were employed: Gram-positive Listeria monocytogenes ATCC 7644, Staphylococcus aureus ATCC 25923, and Bacillus cereus ATCC 11778; Gram-negative Salmonella Typhimurium ATCC 14028, Escherichia coli O157: H7 NCTC 12900 and the clinically important Pseudomonas aeruginosa ATCC 15442.
(§2) The antimicrobial activity assay using the disk diffusion test was realized using the methodology that is recommended by the Clinical Laboratory Standards Institute (CLSI). The determination of the minimum inhibitory concentration (MIC) and minimum bactericidal concentration (MBC) was performed using the macro dilution tube method, in accordance with Rota et al., with modifications. Details of these assays are provided in the Supplemental Material. […]
(§3) 2.1. Antimicrobial activity assay using the disk diffusion test
(§4) The disk diffusion test followed the methodology recommended by the Clinical Laboratory Standards Institute CLSI [4]. The inoculum was standardized by standard McFarland to the concentration of 10^8 CFU.mL−1 and spread on the surface of a Petri dish containing Mueller‐Hinton (MH) agar. Then, the paper disc (6 mm) was put on a plate impregnated with 20 μL of the testing compound previously diluted in DMSO (1:1) and incubated at 37 °C for 24 hours. Zone of inhibition ≥20 mm were considered as strong inhibition, <20–12 mm as moderate inhibition, and <12 mm no inhibition. A positive control with streptomycin antibiotic (10 μg) and a negative one, with paper discs impregnated with distilled water, were used […]
(§5) 2.4. Radical Scavenging Activity […]
(§6) The ABTS radical scavenging activity was determined according to the method described by Erel. Different concentrations of compounds 5a–d and 10 (10–500 μ M) were mixed with the ABTS+ solution, and the decrease in the absorbance at 734 nm was recorded.

[5] = test system: Listeria monocytogenes ATCC 7644; assay: agar disk diffusion test; format: cell-based; conditions: Listeria monocytogenes, ATCC7644; L. monocytogenes, 1.0 × 10^8 CFU.mL^−1; 20 μL compound diluted in DMSO (1:1) per 6 mm disc; streptomycin 10 µg; mean of two repetitions
Description: as §1, §2, §3, §4, §5, §6

[6] = test system: Staphylococcus aureus ATCC 25923; assay: agar disk diffusion test; format: cell-based; conditions: Staphylococcus aureus, ATCC25923; S. aureus, 1.0 × 10^8 CFU.mL^−1; 20 μL compound diluted in DMSO (1:1) per 6 mm disc; streptomycin 10 µg; mean of two repetitions
Description: as §1, §2, §3, §4, §5, §6

[7] = test system: Salmonella Typhimurium ATCC 14028; assay: agar disk diffusion test; format: cell-based; conditions: Salmonella enterica; S. Typhimurium, 1.0 × 10^8 CFU.mL^−1; 20 μL compound diluted in DMSO (1:1) per 6 mm disc; streptomycin 10 µg; mean of two repetitions
Description: as §1, §2, §3, §4, §5, §6

[8] = test system: Pseudomonas aeruginosa ATCC 15442; assay: agar disk diffusion test; format: cell-based; conditions: Pseudomonas aeruginosa, ATCC15442; P. aeruginosa, 1.0 × 10^8 CFU.mL^−1; 20 μL compound diluted in DMSO (1:1) per 6 mm disc; streptomycin 10 µg; mean of two repetitions
Description: as §1, §2, §3, §4, §5, §6

[9] = test system: Escherichia coli O157: H7 NCTC 12900; assay: agar disk diffusion test; format: cell-based; conditions: Escherichia coli, NCTC12900; E. coli O157:H7, 1.0 × 10^8 CFU.mL^−1; 20 μL compound diluted in DMSO (1:1) per 6 mm disc; streptomycin 10 µg; mean of two repetitions
Description: as §1, §2, §3, §4, §5, §6

## CC(C)=CCC[C@@H](C)C(C=O)[Se]c1ccccc1 (stereo partly drawn) [3b, α-phenylselenocitronellal]
[1]
  concentrations with significant reducing power in the FRAP assay: ≥ 500 mM
[2]
  activity in the DPPH assay (in words): inactive
[3]
  activity in the ABTS assay (in words): inactive

## CC(C)=CCCC(C)(CC=O)Sc1ccc(Cl)cc1 (stereo not drawn) [3-(p-chlorophenyl)thio citronellal]
P. fluorescens
  MIC: 4.2 mM (≈ 1250 µg/mL)
L. monocytogenes
  MIC: 2.1 mM (≈ 623 µg/mL)
S. aureus
  MIC: 2.1 mM (≈ 623 µg/mL)
E. coli
  MIC: 4.2 mM (≈ 1250 µg/mL)
S. Typhimurium
  MIC: 4.2 mM (≈ 1250 µg/mL)
S. dysenteriae
  MIC: 4.2 mM (≈ 1250 µg/mL)

## CC(C)=CCC[C@@H](C)CC=O [compound 1, (R)-citronellal]
[1]; at the same concentrations (equal and higher than 500 mM)
  effect in the FRAP assay (in words): did not present any effect
[2]
  activity in the DPPH assay (in words): inactive
[3]
  activity in the ABTS assay (in words): inactive

## [H]/N=C(/N)N[C@H]1[C@H](O)[C@@H](O)[C@H](O[C@@H]2O[C@@H](C)[C@](O)(C=O)[C@H]2O[C@@H]2O[C@@H](CO)[C@H](O)[C@@H](O)[C@@H]2NC)[C@@H](N/C(N)=N\[H])[C@@H]1O [Streptomycin, reference compound]
[4]
  zone of inhibition at 10 µg/disc: 26 mm
[5]
  zone of inhibition at 10 µg/disc: 21 mm
[6]
  zone of inhibition at 10 µg/disc: 21 mm
[7]
  zone of inhibition at 10 µg/disc: 18 mm
[8]
  zone of inhibition at 10 µg/disc: 13 mm
[9]
  zone of inhibition at 10 µg/disc: 24 mm
